Measured values taken from the NIST ThermoML archive (doi:10.1016/j.fluid.2013.10.060).
Numbers after ± are expanded uncertainties.

How the values were obtained:
[1] = refractive index (Na D-line) (dimensionless); settings: 298.15 K; 101.33 kPa; Liquid; Standard Abbe refractometry
[2] = for mass density: 298.15 K, 101.33 kPa, Liquid, Vibrating tube method; for surface tension liquid-gas: 303.15 K, Maximal bubble pressure
[3] = Boiling temperature at pressure P; settings: 101.33 kPa; Liquid; Ebulliometric method (Recirculating still)

Structure (SMILES) | refractive index [1] | mass density [2] | surface tension liquid-gas [2] | Boiling temperature at pressure P [3]
CCO [ethanol] | 1.36068 ± 0.00031 | 785.09 ± 0.15 kg/m3 | 21.7 ± 0.18 mN/m | 78.30 ± 0.02 °C
CCCCCC [hexane] | 1.37374 ± 0.00031 | 655.19 ± 0.18 kg/m3 | 17.4 ± 0.16 mN/m | –
C1CCOCC1 [tetrahydropyran] | 1.42 ± 0.00031 | 879.03 ± 0.13 kg/m3 | 27.1 ± 0.2 mN/m | 88.21 ± 0.02 °C
